Laboratory results published in US8598206B2, “Trypsin-like serine protease inhibitors, and their preparation and use” (The Medicines Company (Leipzig) GmbH, priority 2010, dated 2013).
Like-named read-outs stand apart in the source and are kept apart here.

Tests used:
[1] = target: human activated C1r complement component (Homo sapiens (Human), UniProt P00736); assay: Inhibition of human C1r; assay type: biochemical; settings: S2314 substrate; read-out: h C1r Ki
Protocol: (§1) The inhibitory effect for the individual enzymes was determined in analogy to a previously disclosed method (Stürzebecher et al., J. Med. Chem., 40, 3091-3099 (1997)).
(§2) 200 μl of TBS (0.05 M trishydroxymethylaminomethane; 0.154 M NaCl, 2% ethanol, pH 8.0)
(§3) 2 μL of a test compound solution in 50% v/v DMSO/water
(§4) For zero order kinetics, the reaction was stopped after 20 min by adding 15 μl of acetic acid (80% v/v), and the absorption at 405 nm was determined using a Microplate Reader (Multiscan Ascent™, from Thermo). In the case of pseudo-first order kinetics, the reaction rates in the equilibrium state were determined by continuously recording the change in absorbance at 405 nm. The Ki values were calculated by parameter fitting in accordance with the rate equation for competitive inhibition using the GraFit software, version 4. The Ki values are the average of at least three determinations.

plasma kallikrein = plasma kallikrein (Homo sapiens (Human), UniProt P03952); assay: Determination of inhibition constants for human plasma kallikrein (chromogenic substrate); assay type: biochemical; settings: 25° C., S2302 substrate; read-out: h PK Ki
Protocol: (§5) Determination of the Inhibition Constants for Human Plasmin (h Plasmin) and Human Plasma Kallikrein (h PK)
as §1, §2
(§6) 25 μl of substrate (4 mM, 2 mM and 1 mM tosyl-Gly-Pro-Lys-pNA=Chromozym PL from LOXO for plasmin and 3 mM, 1.5 mM and 1 mM H-D-Pro-Phe-Arg-pNA=S2302 from Chromogenix for PK, dissolved in H2O)
as §3
(§7) 50 μl of enzyme solution (plasmin from Calbiochem: 1.7 mU/ml in 0.154 M NaCl+0.1% BSA m/v; plasma kallikrein from Enzyme Research Lab.: 62 ng/ml in 0.154 M NaCl+0.1% BSA m/v)
as §4

human alpha-thrombin = human alpha-thrombin (Homo sapiens (Human), UniProt P00734); assay: Inhibition of human Factor IIa; assay type: biochemical; settings: Pefachrome tPA substrate; read-out: h FIIa Ki
Protocol: as §1, §2, §3, §4

human Factor Xa = human Factor Xa (Homo sapiens (Human), UniProt P00742); assay: Inhibition of human Factor Xa; assay type: biochemical; settings: Pefachrome FXa substrate; read-out: h FXa Ki
Protocol: The inhibitory effect for the individual enzymes was determined in analogy to a previously disclosed method (Stürzebecher et al., J. Med. […] In the case of pseudo-first order kinetics, the reaction rates in the equilibrium state were determined by continuously recording the change in absorbance at 405 nm. […] The Ki values are the average of at least three determinations. Human Factor Xa (h FXa): […]

[2] = target: human activated protein C (Homo sapiens (Human), UniProt P04070); assay: Inhibition of human activated protein C; assay type: biochemical; settings: Pefachrome PCa substrate; read-out: h aPC Ki
Protocol: as §1, §2, §3, §4

human alpha-FXIIa = human alpha-FXIIa (Homo sapiens (Human), UniProt P00748); assay: Inhibition of human alpha-Factor XIIa; assay type: biochemical; settings: CHA-Gly-Arg-pNA substrate; read-out: h FXIIa Ki
Protocol: as §1, §2, §3, §4

human t-PA = human t-PA (Homo sapiens (Human), UniProt P00750); assay: Inhibition of human tissue-type plasminogen activator; assay type: biochemical; settings: Pefachrome tPA substrate; read-out: h t-PA Ki
Protocol: as §1, §2, §3, §4

plasmin [3] = target: T1, plasmin (Homo sapiens (Human), UniProt P00747); assay: Determination of inhibition constants for human plasmin (chromogenic substrate); assay type: biochemical; settings: 25° C., Chromozym PL substrate; read-out: h plasmin Ki
Protocol: as §5, §1, §2, §6, §3, §7, §4
Target sequence in this assay (P00747 581-810): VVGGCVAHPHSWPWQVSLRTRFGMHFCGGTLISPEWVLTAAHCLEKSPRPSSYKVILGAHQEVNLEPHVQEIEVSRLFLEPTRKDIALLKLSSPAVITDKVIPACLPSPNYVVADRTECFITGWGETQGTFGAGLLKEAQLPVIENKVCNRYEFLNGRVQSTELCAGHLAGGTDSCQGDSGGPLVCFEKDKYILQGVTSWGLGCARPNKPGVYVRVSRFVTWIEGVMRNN
Target sequence in this assay (P00747 97-580 partner): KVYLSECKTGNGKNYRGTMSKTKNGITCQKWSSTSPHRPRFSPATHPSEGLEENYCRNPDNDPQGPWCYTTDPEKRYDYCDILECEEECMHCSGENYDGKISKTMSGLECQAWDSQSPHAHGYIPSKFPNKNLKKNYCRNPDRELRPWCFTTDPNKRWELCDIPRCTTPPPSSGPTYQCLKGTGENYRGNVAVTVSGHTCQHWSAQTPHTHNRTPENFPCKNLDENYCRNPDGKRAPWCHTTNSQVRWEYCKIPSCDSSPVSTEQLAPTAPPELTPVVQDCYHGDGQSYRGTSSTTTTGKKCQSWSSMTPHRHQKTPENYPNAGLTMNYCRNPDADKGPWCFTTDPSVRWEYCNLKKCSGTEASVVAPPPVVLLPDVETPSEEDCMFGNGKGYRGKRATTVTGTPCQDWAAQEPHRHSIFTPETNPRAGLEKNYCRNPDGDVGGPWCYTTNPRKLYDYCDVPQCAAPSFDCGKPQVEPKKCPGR

human Factor XIa = human Factor XIa (Homo sapiens (Human), UniProt P03951); assay: Inhibition of human Factor XIa; assay type: biochemical; settings: Pefachrome PCa substrate; read-out: h FXIa Ki
Protocol: as §1, §2, §3, §4

human urinary kallikrein = human urinary kallikrein (Homo sapiens (Human), UniProt P06870); assay: Inhibition of human urinary kallikrein; assay type: biochemical; settings: S-2266 substrate; read-out: h uKK Ki
Protocol: as §1, §2, §3, §4

[4] = target: human activated C1s complement component (Homo sapiens (Human), UniProt P09871); assay: Inhibition of human C1s; assay type: biochemical; settings: S2314 substrate; read-out: h C1s Ki
Protocol: as §1, §2, §3, §4
Subcomponent “s” of Human Complement Component 1 (h C1s): Inhibition of human C1s was determined by the method described in [0092]-[0098] using native human activated C1s complement component from Calbiochem at 29 nM and Val-Ser-Arg-pNA (S2314) at 8 mM, 6 mM, and 4 mM as substrate; results are reported as Ki values (nanomolar).

plasmin [5] = target: T1, plasmin; settings: background literature; read-out: Ki / inhibition constant for plasmin; cited from earlier work
[6] = cited from earlier work
trypsin = settings: background; cited from earlier work

Sequence of human urinary kallikrein (P06870 25-262): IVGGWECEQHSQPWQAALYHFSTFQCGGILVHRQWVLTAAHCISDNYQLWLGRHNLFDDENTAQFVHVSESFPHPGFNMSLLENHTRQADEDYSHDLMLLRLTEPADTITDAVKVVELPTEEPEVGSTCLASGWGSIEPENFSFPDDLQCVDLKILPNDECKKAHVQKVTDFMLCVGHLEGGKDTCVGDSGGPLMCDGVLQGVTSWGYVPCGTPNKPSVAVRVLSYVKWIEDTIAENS
Sequence of human Factor XIa (P03951 388-625): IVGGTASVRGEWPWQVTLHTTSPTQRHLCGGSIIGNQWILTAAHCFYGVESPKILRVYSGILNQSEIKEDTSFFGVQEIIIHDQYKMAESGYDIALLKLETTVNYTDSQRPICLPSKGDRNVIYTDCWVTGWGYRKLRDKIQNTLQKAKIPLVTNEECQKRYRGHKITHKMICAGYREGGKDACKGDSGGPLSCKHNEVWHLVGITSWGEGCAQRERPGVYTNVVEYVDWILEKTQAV
Sequence of human Factor XIa (P03951 19-387 partner): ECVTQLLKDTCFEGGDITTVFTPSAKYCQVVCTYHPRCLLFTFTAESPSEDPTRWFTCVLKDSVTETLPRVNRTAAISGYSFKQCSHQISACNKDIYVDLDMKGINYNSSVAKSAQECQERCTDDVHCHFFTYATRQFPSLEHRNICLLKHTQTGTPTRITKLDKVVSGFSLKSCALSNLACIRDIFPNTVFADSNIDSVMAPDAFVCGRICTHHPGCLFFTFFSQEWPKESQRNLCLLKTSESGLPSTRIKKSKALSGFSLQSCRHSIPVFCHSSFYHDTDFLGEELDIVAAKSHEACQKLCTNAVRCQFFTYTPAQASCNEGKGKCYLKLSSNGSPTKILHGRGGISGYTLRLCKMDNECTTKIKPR
Sequence of human t-PA (P00750 36-562): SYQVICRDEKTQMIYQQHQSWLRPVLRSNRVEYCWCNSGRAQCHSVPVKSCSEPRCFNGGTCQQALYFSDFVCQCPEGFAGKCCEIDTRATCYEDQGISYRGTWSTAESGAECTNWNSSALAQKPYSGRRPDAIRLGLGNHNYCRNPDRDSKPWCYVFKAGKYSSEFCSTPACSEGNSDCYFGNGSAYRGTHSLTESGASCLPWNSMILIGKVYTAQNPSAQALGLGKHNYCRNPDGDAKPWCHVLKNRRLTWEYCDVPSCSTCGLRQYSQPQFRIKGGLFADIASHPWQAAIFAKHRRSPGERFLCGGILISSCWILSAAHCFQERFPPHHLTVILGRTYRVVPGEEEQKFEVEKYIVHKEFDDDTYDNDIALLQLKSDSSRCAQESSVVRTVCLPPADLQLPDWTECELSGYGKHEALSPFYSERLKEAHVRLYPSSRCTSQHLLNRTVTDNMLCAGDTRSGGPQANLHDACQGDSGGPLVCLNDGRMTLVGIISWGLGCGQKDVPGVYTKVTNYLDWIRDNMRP
Sequence of human alpha-FXIIa (P00748 373-615): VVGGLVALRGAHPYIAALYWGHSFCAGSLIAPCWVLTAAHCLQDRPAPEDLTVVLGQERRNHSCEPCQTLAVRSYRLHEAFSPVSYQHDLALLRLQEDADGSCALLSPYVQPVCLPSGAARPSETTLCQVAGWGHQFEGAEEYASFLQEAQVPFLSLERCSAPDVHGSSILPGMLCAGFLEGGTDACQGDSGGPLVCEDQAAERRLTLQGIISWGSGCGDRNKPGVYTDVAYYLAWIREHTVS
Sequence of human alpha-FXIIa (P00748 20-372 partner): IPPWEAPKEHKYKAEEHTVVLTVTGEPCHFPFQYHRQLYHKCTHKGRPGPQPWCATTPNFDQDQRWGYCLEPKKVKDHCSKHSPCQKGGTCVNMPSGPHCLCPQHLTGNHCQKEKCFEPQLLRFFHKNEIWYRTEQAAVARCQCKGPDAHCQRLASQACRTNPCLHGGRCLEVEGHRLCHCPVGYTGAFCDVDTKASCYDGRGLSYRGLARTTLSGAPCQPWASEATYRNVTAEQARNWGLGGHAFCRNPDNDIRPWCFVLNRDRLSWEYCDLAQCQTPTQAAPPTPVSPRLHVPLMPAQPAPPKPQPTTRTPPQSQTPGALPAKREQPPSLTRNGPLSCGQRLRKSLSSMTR
Sequence of human activated C1s complement component (P09871 438-688): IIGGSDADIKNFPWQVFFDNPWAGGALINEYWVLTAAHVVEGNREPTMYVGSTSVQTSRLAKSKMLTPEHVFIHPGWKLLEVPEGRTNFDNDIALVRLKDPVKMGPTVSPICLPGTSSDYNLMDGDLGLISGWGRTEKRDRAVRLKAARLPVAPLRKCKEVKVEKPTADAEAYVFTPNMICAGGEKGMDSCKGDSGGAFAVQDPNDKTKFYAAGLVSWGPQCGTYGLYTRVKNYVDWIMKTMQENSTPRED
Sequence of human activated C1s complement component (P09871 16-437 partner): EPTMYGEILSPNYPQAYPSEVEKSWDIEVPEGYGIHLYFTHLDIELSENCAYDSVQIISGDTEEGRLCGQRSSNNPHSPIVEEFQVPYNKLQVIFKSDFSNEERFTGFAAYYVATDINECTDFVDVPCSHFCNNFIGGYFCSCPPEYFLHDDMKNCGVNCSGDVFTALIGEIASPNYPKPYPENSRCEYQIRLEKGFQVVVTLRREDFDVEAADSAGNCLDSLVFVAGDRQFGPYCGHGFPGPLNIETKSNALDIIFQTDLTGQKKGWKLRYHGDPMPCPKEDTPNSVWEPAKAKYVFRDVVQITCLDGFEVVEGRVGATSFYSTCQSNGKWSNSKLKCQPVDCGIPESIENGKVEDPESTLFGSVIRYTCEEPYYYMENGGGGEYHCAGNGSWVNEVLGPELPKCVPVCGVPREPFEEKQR
Sequence of plasma kallikrein (P03952 391-638): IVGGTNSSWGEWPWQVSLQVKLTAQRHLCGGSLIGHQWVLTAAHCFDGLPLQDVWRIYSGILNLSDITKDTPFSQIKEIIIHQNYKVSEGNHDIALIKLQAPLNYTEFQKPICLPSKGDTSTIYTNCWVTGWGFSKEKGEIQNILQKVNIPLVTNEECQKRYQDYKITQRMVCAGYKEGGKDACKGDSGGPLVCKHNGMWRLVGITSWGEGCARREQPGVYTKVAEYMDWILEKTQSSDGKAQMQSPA
Sequence of plasma kallikrein (P03952 20-390 partner): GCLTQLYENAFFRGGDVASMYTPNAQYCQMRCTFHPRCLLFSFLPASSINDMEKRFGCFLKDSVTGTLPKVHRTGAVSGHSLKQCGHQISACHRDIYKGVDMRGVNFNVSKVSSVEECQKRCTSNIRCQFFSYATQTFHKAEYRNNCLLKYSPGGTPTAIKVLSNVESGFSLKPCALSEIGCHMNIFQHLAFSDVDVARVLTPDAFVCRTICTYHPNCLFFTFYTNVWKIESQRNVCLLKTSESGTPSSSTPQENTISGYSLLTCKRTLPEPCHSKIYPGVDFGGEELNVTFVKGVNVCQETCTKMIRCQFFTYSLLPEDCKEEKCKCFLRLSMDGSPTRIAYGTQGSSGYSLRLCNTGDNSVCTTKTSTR
Sequence of human Factor Xa (P00742 235-488): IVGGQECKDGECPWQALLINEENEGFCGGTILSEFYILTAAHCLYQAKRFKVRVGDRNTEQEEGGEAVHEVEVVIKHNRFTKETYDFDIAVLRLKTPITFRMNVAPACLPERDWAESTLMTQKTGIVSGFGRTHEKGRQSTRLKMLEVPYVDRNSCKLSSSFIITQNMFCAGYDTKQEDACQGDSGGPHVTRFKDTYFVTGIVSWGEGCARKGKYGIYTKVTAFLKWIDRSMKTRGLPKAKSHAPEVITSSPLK
Sequence of human Factor Xa (P00742 41-179 partner): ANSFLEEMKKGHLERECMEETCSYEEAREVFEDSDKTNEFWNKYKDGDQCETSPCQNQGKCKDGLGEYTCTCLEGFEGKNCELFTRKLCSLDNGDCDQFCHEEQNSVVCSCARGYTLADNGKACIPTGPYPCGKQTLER
Sequence of human activated protein C (P04070 212-450): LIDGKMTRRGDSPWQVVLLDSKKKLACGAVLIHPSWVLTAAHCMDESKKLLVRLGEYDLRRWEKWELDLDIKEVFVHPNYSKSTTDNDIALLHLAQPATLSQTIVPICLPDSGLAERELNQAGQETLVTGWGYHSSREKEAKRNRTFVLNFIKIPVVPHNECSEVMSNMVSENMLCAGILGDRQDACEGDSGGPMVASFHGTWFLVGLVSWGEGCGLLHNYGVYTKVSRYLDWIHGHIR
Sequence of human activated protein C (P04070 43-197 partner): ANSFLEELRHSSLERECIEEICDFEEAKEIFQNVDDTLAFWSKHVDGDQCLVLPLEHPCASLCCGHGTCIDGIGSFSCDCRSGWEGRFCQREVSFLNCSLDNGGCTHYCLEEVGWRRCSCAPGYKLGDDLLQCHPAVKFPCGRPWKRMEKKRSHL

Row | Molecule | Ki [1] | Ki (plasma kallikrein) | Ki (human alpha-thrombin) | Ki (human Factor Xa) | Ki [2] | Ki (human alpha-FXIIa) | Ki (human t-PA) | Ki (plasmin [3]) | Ki (human Factor XIa) | Ki (human urinary kallikrein) | Ki [4] | Ki (plasmin [5]) | risk of anaphylactic shock ([6]; first administration) | risk of anaphylactic shock ([6]; repeated administration within 200 days) | Ki (trypsin)
1 | N=C(N)c1ccc(CNC(=O)[C@H](CCC2CCNCC2)NC(=O)[C@@H](CCCc2ccncc2)NS(=O)(=O)Cc2ccccc2)cc1 | > 50 µM | 0.0027 µM | 1.2 µM | 0.85 µM | 0.6 µM | 1.5 µM | 2.3 µM | 0.0004 µM | 0.5 µM | > 80 µM | 4.95 µM | – | – | – | –
2 | COC(=O)c1cccc(CS(=O)(=O)N[C@H](CCCc2ccccc2)C(=O)N[C@@H](CCC2CCNCC2)C(=O)NCc2ccc(C(=N)N)cc2)c1 | > 30 µM | 0.0094 µM | 0.92 µM | 5.9 µM | 0.57 µM | > 10 µM | 3.9 µM | 0.0027 µM | 0.5 µM | > 20 µM | 4.8 µM | – | – | – | –
3 | N=C(N)c1ccc(CNC(=O)[C@H](CCC2CCNCC2)NC(=O)[C@@H](CCCc2cc[n+]([O-])cc2)NS(=O)(=O)Cc2ccccc2)cc1 [drawing 117] | > 30 µM | 0.004 µM | 4.9 µM | 0.4 µM | 0.85 µM | 0.87 µM | 2.4 µM | 0.001 µM | 1.4 µM | > 200 µM | 10 µM | – | – | – | –
4 | N=C(N)c1ccc(CNC(=O)[C@H](CCC2CCNCC2)NC(=O)[C@@H](CCCc2cc[n+]([O-])cc2)NS(=O)(=O)Cc2ccccc2)cc1 [drawing 123] | > 30 µM | 0.004 µM | 4.9 µM | 0.4 µM | 0.85 µM | 0.87 µM | 2.4 µM | 0.001 µM | 1.4 µM | > 200 µM | 9.5 µM | – | – | – | –
5 | N=C(N)c1ccc(CNC(=O)[C@@H]2CCN2C(=O)[C@H](NCC(=O)O)C2CCCCC2)cc1 [melagatran] | – | – | – | – | – | – | – | – | – | – | – | 0.7 µM | – | – | –
6 | aprotinin | – | – | – | – | – | – | – | – | – | – | – | – | < 0.1% | 4-5% | 0.0001 µM
